Results taken from patent US12441757B2, “Platform for screening NAD+ binding proteins in a cellular context” (OREGON HEALTH & SCIENCE UNIVERSITY, priority 2020, dated 2025).

Assays:
[1] = tested on: inosine monophosphate dehydrogenase; conditions: cited from earlier work
PARP-10 = target: T1, PARP-10 (Homo sapiens, UniProt Q53GL7); test: In vitro PARP-10 auto-MARylation activity assay; format: biochemical
T1 construct: Full length His6-PARP-1 and His6-SUMO-PARP-10 proteins we expressed and purified; His6 (N); SUMO (N); made in house
T1 sequence (Q53GL7 1-1025): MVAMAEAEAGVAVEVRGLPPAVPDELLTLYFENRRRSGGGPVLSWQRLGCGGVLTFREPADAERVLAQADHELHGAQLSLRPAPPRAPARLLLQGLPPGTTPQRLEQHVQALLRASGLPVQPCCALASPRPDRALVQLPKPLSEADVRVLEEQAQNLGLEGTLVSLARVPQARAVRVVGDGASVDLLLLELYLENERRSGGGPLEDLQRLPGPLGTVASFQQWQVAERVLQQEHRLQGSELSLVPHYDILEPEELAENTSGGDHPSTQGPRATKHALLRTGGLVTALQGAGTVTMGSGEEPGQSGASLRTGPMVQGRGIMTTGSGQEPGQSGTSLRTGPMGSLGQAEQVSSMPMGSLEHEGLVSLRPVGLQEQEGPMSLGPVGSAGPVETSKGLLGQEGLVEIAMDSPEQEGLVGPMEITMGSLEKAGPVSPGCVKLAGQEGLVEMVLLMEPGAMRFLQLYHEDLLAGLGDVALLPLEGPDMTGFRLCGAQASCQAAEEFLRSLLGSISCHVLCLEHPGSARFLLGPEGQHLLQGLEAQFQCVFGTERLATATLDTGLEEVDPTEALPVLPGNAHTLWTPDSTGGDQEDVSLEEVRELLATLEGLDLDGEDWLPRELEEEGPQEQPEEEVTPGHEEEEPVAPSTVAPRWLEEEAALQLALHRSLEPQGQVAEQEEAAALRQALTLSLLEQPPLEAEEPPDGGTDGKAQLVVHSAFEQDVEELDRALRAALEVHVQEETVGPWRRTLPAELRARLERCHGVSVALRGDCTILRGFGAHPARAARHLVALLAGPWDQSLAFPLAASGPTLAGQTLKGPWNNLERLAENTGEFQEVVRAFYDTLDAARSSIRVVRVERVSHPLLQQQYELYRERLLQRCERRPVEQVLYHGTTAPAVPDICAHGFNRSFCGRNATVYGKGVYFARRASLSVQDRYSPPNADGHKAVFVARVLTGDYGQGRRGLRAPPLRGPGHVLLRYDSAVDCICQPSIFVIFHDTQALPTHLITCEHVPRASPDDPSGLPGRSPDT
Method: FIG. 5. A clickable NAD^+ PAL probe (2-ad-BAD) inhibits PARP-1 and PARP-10 activity in concentration response. (FIG. 5A) 50 nM of recombinant His6-PARP-1 was incubated with 10 μg/mL activated DNA in 100 mM NaCl, 50 mM HEPES [pH 7.4], 4 mM MgCl2, 0.2 mM TCEP for 10 min, then treated with indicated competitor (BAD or the PARP-1 inhibitor NMS-P118) for additional 10 min. 50 μM NAD^+ was then added to initiate auto-PARylation of PARP-1. After 10 min, the reaction was quenched by addition of 4× Laemmli sample buffer and boiling at 95° C. for 5 min. Protein samples were separated by SDS-PAGE, transferred onto nitrocellulose and probed with indicated antibodies. (FIG. 5B) Experiments were performed essentially as in (5A) with the exception that damaged DNA was omitted and the PARP-10 inhibitor ITK6 was used instead of NMS-P118. (FIG. 5C) Densitometry analyses of (5A) and (5B) comparing inhibitory effect of BAD on PARP-1 and PARP-10 auto-ADP-ribosylation. Data are mean±SEM of 3 independent experiments. […]
Samples were run on 10% or 12% acrylamide gels for ˜1 h at 180 V in Mini-PROTEAN Tetra cell (Biorad). […] Band intensities we quantified with ImageJ.

NC(=O)c1cccc([C@@H]2O[C@H](COP(=O)(O)OP(=O)(O)OC[C@H]3O[C@@H](n4cnc5c(N)ncnc54)[C@H](O)[C@@H]3O)[C@@H](O)[C@H]2O)c1 [BAD, benzamide adenine dinucleotide]
binding to and inhibition of NAD^+/NADH binding enzymes (e.g., inosine monophosphate dehydrogenase) [1]: binds to and inhibits | relative potency against PARP-10 compared to PARP-1 (PARP-10; auto-ADP-ribosylation assays, densitometry): the opposite was true | inhibition of PARP-10 auto-MARylation (PARP-10; dose response, 50 μM NAD^+, anti-ADPr immunoblot): inhibited
